From US9296755B2, “3,4-dihydro-1H-pyrimido[1,6-a]pyrimidin-6(2H)-one compounds and their therapeutic applications” (GlaxoSmithKline Intellectual Property Development Limited, priority 2013, dated 2016)

Key:
rat EAE model = test: Rat experimental autoimmune encephalomyelitis (EAE) model, preventive treatment; format: in vivo; conditions: MBP immunization, administered day 0 to day 22
Experimental: (§1) A further study was carried out to study the impact of Lp-PLA2 inhibitors on modulating M1/M2 imbalance. In this study, rats were induced to develop experimental autoimmune encephalomyelitis (EAE) by immunization with myelin basic protein (MBP) antigen and treated with a known Lp-PLA2 inhibitor: 5-((9-Methoxy-4-oxo-6,7-dihydro-4H-pyrimido[6,1-a]isoquinolin-2-yl)oxy)-2-(3-(trifluoromethyl)phenoxy)benzonitrile (See PCT application no. PCT/CN2011/001597). In this preventive treatment model, the compound was administered at day 0 (day of immunization) and continued to administer until day 22. The study lasted for 25 days. Rats were subsequently monitored for symptoms of EAE. Rats were immunized with MBP to develop EAE and symptoms were monitored daily. Plasma Lp-PLA2 activity, OxLDL, and LysoPC concentration were determined at different time points through the course of EAE.

Lp-PLA2 [1] = test: Plasma Lp-PLA2 activity and LysoPC in rat EAE plasma; format: in vivo
Experimental: as §1

Lp-PLA2 [2] = target: T1, Lp-PLA2 (Rattus norvegicus, UniProt A6JJ35); test: as above; format: in vivo
T1 construct: from tissue; host or cells: plasma of EAE rats
T1 sequence (A6JJ35 22-440): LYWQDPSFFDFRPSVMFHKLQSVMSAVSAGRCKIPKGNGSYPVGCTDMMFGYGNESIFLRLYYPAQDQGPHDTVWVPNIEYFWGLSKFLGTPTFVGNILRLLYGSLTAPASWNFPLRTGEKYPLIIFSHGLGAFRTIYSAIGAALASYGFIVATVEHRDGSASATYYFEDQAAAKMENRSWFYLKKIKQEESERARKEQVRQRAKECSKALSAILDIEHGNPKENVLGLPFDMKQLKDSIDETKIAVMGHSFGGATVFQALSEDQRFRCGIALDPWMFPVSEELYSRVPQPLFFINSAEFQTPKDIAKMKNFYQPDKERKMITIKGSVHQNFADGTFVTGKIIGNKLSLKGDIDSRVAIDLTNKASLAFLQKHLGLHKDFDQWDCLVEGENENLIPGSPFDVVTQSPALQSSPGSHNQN
Experimental: as §1

[3] = test system: proinflammatory (M1) and anti-inflammatory (M2) markers; test: Ex vivo analysis of M1 and M2 markers in macrophages of EAE rats by realtime PCR; design: species or system rat; conditions: splenic macrophages day 13 post MBP-immunization and CNS infiltrating macrophages
Experimental: Ex vivo analysis of proinflammatory (M1) and anti-inflammatory (M2) markers in control and compound treated EAE rats. Splenic macrophages were harvested at day 13 post MBP-immunization and assayed for expression of a variety of markers by realtime PCR. CNS infiltrating cells were harvested and macrophages were analyzed for expression of M1 and M2 markers by realtime PCR.

[4] = target: Recombinant human PLA2 VIIB (Homo sapiens, UniProt Q99487); test: PLA2 VIIB assay; format: biochemical
Source text: PLA2 VIIB (also known as Novel Serine Dependent Lipase, NSDL) is a serine hydrolase with 40% amino acid identity with human Lp-PLA2. Sequence comparisons indicate that the PLA VIIB active site catalytic triad positions are similar to those of Lp-PLA2. Similar to Lp-PLA2, it is capable of hydrolyzing oxidatively modified phospholipids and may be assayed using known Lp-PLA2 substrates.
Upon cleavage by a phopholipase, […] liberates a fluorescent Bodipy group. Recombinant human PLA2 VIIB is used as the phospholipase source in this assay, and compounds are screened to test their degree of inhibition in this assay. The assay is used to determine the degree of selectivity of the testing compounds between PLA2 VIIB and Lp-PLA2.
The PLA2 VIIB assay was applied as an unquenched 10 μL assay. The source plate containing the compounds is prepared by making 1:3 (by volume) serial dilution of the compounds with pure DMSO on 384-well microplate. 0.01 μL of compounds on the compound source plate were transferred into 384 well Greiner 784076 (black) plates by ECHO liquid dispenser. 5 μL of Novel Serine Dependent Lipase (NSDL) enzyme (5 nM NSDL in assay buffer of 50 mM HEPES, pH 7.4, 150 mM NaCl, 1 mM CHAPS) was added to each well. […] Plates were kinetic read by starting read immediately after PED6 addition at ex: 480/em:540 using ViewLux microplate reader or Envision spectrofluorimeters. […]

Structure (SMILES) | clinical disease (EAE) (rat EAE model) | LysoPC levels in rat EAE plasma (Lp-PLA2 [1]) | Lp-PLA2 activity in rat EAE plasma (Lp-PLA2 [2]) | M1 markers [3] | M2 markers [3] | selectivity between human recombinant Lp-PLA2 and PLA2 VIIB [4] [fold]
COc1ccc2c(c1)CCn1c-2cc(Oc2ccc(Oc3cccc(C(F)(F)F)c3)c(C#N)c2)nc1=O [5-((9-Methoxy-4-oxo-6,7-dihydro-4H-pyrimido[6,1-a]isoquinolin-2-yl)oxy)-2-(3-(trifluoromethyl)phenoxy)benzonitrile] | reduction in clinical disease | decreased | decreased | decrease | increase | 
Cc1ccccc1CN1CCCn2c1cc(OCc1ccc(F)c(F)c1)nc2=O [Example E7, 8-((3,4-difluorobenzyl)oxy)-1-(2-methylbenzyl)-3,4-dihydro-1H-pyrimdo[1,6-a]pyrimidin-6(2H)-one] |  |  |  |  |  | ≤ 100
